Results taken from PMC5391094, “Characterizing the anti-inflammatory and tissue protective actions of a novel Annexin A1 peptide” (PLoS ONE, 2017).
Values joined by “and” are separate entries in the source; they are usually repeats but may differ in a detail not shown here. Equal values may be shown once. Where no end group is shown, it is not given here.

How the values were obtained:
[1] = system: activated human neutrophils; test: Neutrophil-mediated degradation (peptide remaining in incubations with activated human neutrophils); type: in vitro ADME; conditions: incubation with activated human neutrophils; compared to parent peptide CR-AnxA1_2-50; mean ± SEM of n = 4 distinct incubations
Protocol: Therefore, we designed a peptide that in addition to having a substitution of Valine25 to Leucine, which we previously found to confer resistance to proteinease-3 and neutrophil elastae, also lacked Alanines at positions 49 and 50 (Fig 1A).
Fig 1 CR-AnxA1_2-48 is resistant to neutrophil mediated cleavage and selectively binds the ALX receptor. (A) Aminoacid sequences for CR-AnxA1_2–50 and CR-AnxA1_2–48 (B) Plots depicting the amount of peptide remaining at the indicated intervals in incubations of human neutrophil with CR-AnxA1_2–50 or CR-AnxA1_2–48. Results are mean ± SEM of n = 4 distinct incubations with different neutrophil preparations. *p < 0.05 versus AnxA1_2–48 incubations. (C,D) Binding affinity of CR-AnxA1_2–48 to (C) human ALX-overexpressing and (D) FPR1-overexpressing HEK cells was assessed in a competitive binding assay using [^125I]–Ac2-26. (E) Agonist activity of CR-AnxA1_2–48 was investigated using β-arrestin stably expressing FPR2/ALX. Results for C-E are mean ± SEM of 3–4 independent experiments. TEXT PRINTED IN THE PICTURE: (C) CR-ANXA12-48: IC50= 20 nM

human ALX receptor = molecular target: T1, human ALX receptor (Homo sapiens, UniProt P25090); test: Competitive binding assay with [125I-Tyr]-Ac2-26 tracer on ALX-HEK transfected cells; conditions: HEK cells overexpressing human ALX, 1x10^6 cells/ml; tracer 50nM; peptide 0.1nM-10μM; 1h, 4°C; mean of 3-4 independent experiments; read-out: IC50, displacement of 125I labelled Ac2-26 from ALX receptor
T1 construct: expressed in transfected cells; host or cells: HEK cells
T1 sequence (P25090 1-351): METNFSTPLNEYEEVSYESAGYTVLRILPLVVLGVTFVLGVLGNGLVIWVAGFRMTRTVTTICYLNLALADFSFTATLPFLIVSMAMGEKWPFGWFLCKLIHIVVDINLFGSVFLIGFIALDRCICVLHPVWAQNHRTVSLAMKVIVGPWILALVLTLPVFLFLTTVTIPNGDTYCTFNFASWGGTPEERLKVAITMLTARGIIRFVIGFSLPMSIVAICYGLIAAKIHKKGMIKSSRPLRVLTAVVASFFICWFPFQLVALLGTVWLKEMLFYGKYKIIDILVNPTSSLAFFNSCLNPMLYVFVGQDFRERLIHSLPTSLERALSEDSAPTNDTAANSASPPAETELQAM
Protocol: Binding experiments were conducted as in [13]. Briefly FPR1-human embryonic kidney (HEK)–or ALX-HEK—transfected cells (1x10^6 cells/ml) were incubated with increasing concentrations of cold CR-AnxA1_2-50, CR-AnxA1_2-48 (0.1nM-10μM) or PBS and a fixed concentration (50nM) of [^125I-Tyr]-Ac2-26 for (1h, 4°C). Bound and unbound tracer were separated by filtration through Whatman GF/C glass microfibre filters (Kent, United Kingdom) using a vacuum manifold, and the amount of tracer bound to the cells was quantified by counting filters in a gamma-counter.

ALX = conditions: cited from earlier work
Text: The ALX receptor is a G-protein coupled receptor that mediates the biological actions of a number of pro-resolving molecules including the essential fatty acid derived specialized pro-resolving mediators Resolvin D1, Resolvin D3 and Lipoxin A4 [32].

Row | Substance | Resistance to neutrophil mediated cleavage (amount of peptide remaining) [1] | IC50 (human ALX receptor) | Binding affinity to ALX relative to FPR1 (ALX)
1 | AMVSEFLKQAWFIENEEQEYVQTLKSSKGGPGSAVSPYPTFNPSSDV-NH2 [CR-AnxA1_2-48] | significant increase in resistance to neutrophil mediated cleavage | ~20 nM and 20 nM | 
2 | fMLF |  |  | about a log order lower
